Measured values taken from patent US11708348B2, “Protease inhibitors for treatment of coronavirus infections” (The Scripps Research Institute, priority 2021, dated 2023).
Where two headings read alike, the source gives them in different places.

System: SARS-CoV-2 strain USA-WA1/2020
Test: microbe, parasite or virus in culture
Type: cell-based
Details: Severe acute respiratory syndrome coronavirus 2, HeLa-ACE2, 24 h, HeLa-ACE2 cells, SARS-CoV-2 infection, 24 h, read-out: EC50, uM (Hela)

| Structure (SMILES) | EC50 [µM] | EC50 (class symbols) [µM] | also measured |
| --- | --- | --- | --- |
| O=C(NCC(F)(F)F)C(=O)N1[C@@H]2CC[C@@H](C2)[C@H]1C(=O)N[C@@H](C[C@@H]1CCNC1=O)C(=O)COC(F)(F)F [Compound 542, (1R,3S,4S)-N-((S)-3-oxo-1-((S)-2-oxopyrrolidin-3-yl)-4-(trifluoromethoxy)butan-2-yl)-2-(2-oxo-2-((2,2,2-trifluoroethyl)-amino)acetyl)-2-azabicyclo[2.2.1]-heptane-3-carboxamide] | 0.05 to 0.2 | – | – |
| CC(C)(C)NC(=O)C(=O)N1C[C@H]2[C@@H]([C@H]1C(=O)N[C@@H](C[C@@H]1CCNC1=O)C(=O)COC(F)(F)F)C21CC1 [Compound 553, (1R,2S,5S)-3-(2-(tert-butylamino)-2-oxoacetyl)-N-((S)-3-oxo-1-((S)-2-oxopyrrolidin-3-yl)-4-(trifluoromethoxy)butan-2-yl)-3-azaspiro-[bicyclo[3.1.0]hexane-6,1'-cyclopropane]-2-carboxamide] | 0.05 to 0.2 | – | – |
| CCC[C@@H](O)C(=O)N1CC2(CC2)C[C@H]1C(=O)N[C@@H](C[C@@H]1CCNC1=O)C(=O)COC(F)(F)F [Compound 766, (S)-5-((R)-2-hydroxypentanoyl)-N-((S)-3-oxo-1-((S)-2-oxopyrrolidin-3-yl)-4-(trifluoromethoxy)butan-2-yl)-5-azaspiro[2.4]heptane-6-carboxamide] | 0.05 to 0.2 | – | – |
| CC(C)(C)[C@H](NC(=O)OCc1ccccc1)C(=O)N1C[C@H]2[C@@H]([C@H]1C(=O)N[C@@H](C[C@@H]1CCNC1=O)C(=O)COC(F)(F)F)C2(C)C [Compound 620, benzyl ((S)-1-((1R,2S,5S)-6,6-dimethyl-2-(((S)-3-oxo-1-((S)-2-oxopyrrolidin-3-yl)-4-(trifluoromethoxy)butan-2-yl)carbamoyl)-3-azabicyclo[3.1.0]hexan-3-yl)-3,3-dimethyl-1-oxobutan-2-yl)carbamate] | < 0.05 | – | – |
| CC1(C)[C@@H]2[C@@H](C(=O)N[C@@H](C[C@@H]3CCNC3=O)C(=O)COC(F)(F)F)N(C(=O)[C@H]3CCCO3)C[C@@H]21 [Compound 291, (1R,2S,5S)-6,6-dimethyl-N-((S)-3-oxo-1-((S)-2-oxopyrrolidin-3-yl)-4-(trifluoromethoxy)butan-2-yl)-3-((R)-tetrahydrofuran-2-carbonyl)-3-azabicyclo-[3.1.0]hexane-2-carboxamide] | – | 0.05 to 0.2 | – |
| O=C(N[C@@H](CC1CCCCC1)C(=O)N[C@@H](C[C@@H]1CCNC1=O)C(=O)COc1c(F)c(F)cc(F)c1F)c1cc2ccccc2[nH]1 [Compound 5, N-((S)-3-cyclohexyl-1-oxo-1-(((S)-3-oxo-l-((S)-2-oxopyrrolidin-3-yl)-4-(2,3,5,6-tetrafluorophenoxy)butan-2-yl)amino)propan-2-yl)-1H-indole-2-carboxamide] | – | 0.05 to 0.2 | – |
| O=C(NC1CC(F)(F)C1)C(=O)N[C@@H](CC1CC1)C(=O)N[C@@H](C[C@@H]1CCNC1=O)C(=O)COC(F)(F)F [Compound 176, N1-((S)-3-cyclopropyl-1-oxo-1-(((S)-3-oxo-1-((S)-2-oxopyrrolidin-3-yl)-4-(trifluoromethoxy)butan-2-yl)amino)propan-2-yl)-N2-(3,3-difluorocyclobutyl)-oxalamide] | – | < 0.05 | – |
| O=C(Nc1ccccc1Cl)C(=O)N1CC2(CC2)C[C@H]1C(=O)N[C@@H](C[C@@H]1CCNC1=O)C(=O)COC(F)(F)F [Compound 606, (S)-5-(2-((2-chlorophenyl)amino)-2-oxoacetyl)-N-((S)-3-oxo-1-((S)-2-oxopyrrolidin-3-yl)-4-(trifluoromethoxy)butan-2-yl)-5-azaspiro[2.4]heptane-6-carboxamide] | < 0.05 | – | – |
| O=C1NCC[C@H]1C[C@H](NC(=O)[C@@H]1CC2(CC2)CN1C(=O)C(O)CC(F)(F)F)C(=O)COC(F)(F)F (stereo partly drawn) [Compound 390, (6S)-N-((S)-3-oxo-1-((S)-2-oxopyrrolidin-3-yl)-4-(trifluoromethoxy)butan-2-yl)-5-(4,4,4-trifluoro-2-hydroxybutanoyl)-5-azaspiro[2.4]heptane-6-carboxamide] | – | 0.05 to 0.2 | – |
| CC1(NC(=O)C(=O)N[C@@H](CC2CC2)C(=O)N[C@@H](C[C@@H]2CCNC2=O)C(=O)COC(F)(F)F)CC1 [Compound 585, N1-((S)-3-cyclopropyl-1-oxo-1-(((S)-3-oxo-1-((S)-2-oxopyrrolidin-3-yl)-4-(trifluoromethoxy)butan-2-yl)amino)propan-2-yl)-N2-(1-methylcyclo-propyl)oxalamide] | < 0.05 | – | – |
| O=C1NCC[C@H]1C[C@H](NC(=O)[C@@H]1[C@H]2CCC[C@H]2CN1C(=O)OC1CCOC1)C(=O)COC(F)(F)F (stereo partly drawn) [Compound 559, tetrahydrofuran-3-yl (1S,3aR,6aS)-1-(((S)-3-oxo-1-((S)-2-oxopyrrolidin-3-yl)-4-(trifluoromethoxy)butan-2-yl)carbamoyl)-hexahydrocyclo-penta[c]-pyrrole-2(1H)-carboxylate] | 0.05 to 0.2 | – | – |
| CC(C)C[C@H](NC(=O)c1cc2cc(F)ccc2[nH]1)C(=O)N[C@@H](C[C@@H]1CCNC1=O)C(=O)COc1c(F)c(F)cc(F)c1F [Compound 16, 5-fluoro-N-((S)-4-methyl-1-oxo-1-(((S)-3-oxo-1-((S)-2-oxopyrrolidin-3-yl)-4-(2,3,5,6-tetrafluorophenoxy)butan-2-yl)amino)pentan-2-yl)-1H-indole-2-carboxamide] | – | 0.05 to 0.2 | – |
| Cc1ccccc1NC(=O)c1cn([C@@H](CC(C)C)C(=O)N[C@@H](C[C@@H]2CCNC2=O)C(=O)COC(F)(F)F)nn1 [Compound 552, 1-((S)-4-methyl-1-oxo-1-(((S)-3-oxo-1-((S)-2-oxopyrrolidin-3-yl)-4-(trifluoromethoxy)butan-2-yl)amino)pentan-2-yl)-N-(o-tolyl)-1H-l,2,3-triazole-4-carboxamide] | < 0.05 | – | – |
| COc1cccc2[nH]c(C(=O)N[C@@H](CC(C)C)C(=O)N[C@@H](C[C@@H]3CCNC3=O)C(=O)COC(C(F)(F)F)C(F)(F)F)cc12 [Compound 157] | – | – | EC50 (cells given as a bound): > 1 µM |
| O=C(Nc1ccccc1)C(=O)N[C@@H](CC1CCCC1)C(=O)N[C@@H](C[C@@H]1CCNC1=O)C(=O)COc1c(F)c(F)cc(F)c1F [Compound 44, N1-((S)-3-cyclopentyl-1-oxo-1-(((S)-3-oxo-1-((S)-2-oxopyrrolidin-3-yl)-4-(2,3,5,6-tetrafluorophenoxy)butan-2-yl)amino)propan-2-yl)-N2-phenyloxalamide] | – | < 0.05 | – |
| CC(C)C[C@H](NC(=O)c1ccc2c(c1)OCO2)C(=O)N[C@@H](C[C@@H]1CCNC1=O)C(=O)COC(F)(F)F [Compound 168, N-((S)-4-methyl-1-oxo-1-(((S)-3-oxo-1-((S)-2-oxopyrrolidin-3-yl)-4-(trifluoromethoxy)butan-2-yl)amino)pentan-2-yl)benzo[d][l,3]dioxole-5-carboxamide] | – | 0.05 to 0.2 | – |
| O=C(N[C@@H](CCc1ccccc1)C(=O)N[C@@H](C[C@@H]1CCNC1=O)C(=O)COc1c(F)c(F)cc(F)c1F)c1cc2cc(F)ccc2[nH]1 [Compound 12, 5-fluoro-N-((S)-1-oxo-1-(((S)-3-oxo-1-((S)-2-oxopyrrolidin-3-yl)-4-(2,3,5,6-tetrafluorophenoxy)butan-2-yl)amino)-4-phenylbutan-2-yl)-1H-indole-2-carboxamide] | – | 0.5 to 1 | – |
| O=C(Nc1ccccc1F)C(=O)NC1(C(=O)N[C@@H](C[C@@H]2CCNC2=O)C(=O)COC(F)(F)F)CCOCC1 [Compound 257, N1-(2-fluorophenyl)-N2-(4-(((S)-3-oxo-1-((S)-2-oxopyrrolidin-3-yl)-4-(trifluoromethoxy)butan-2-yl)carbamoyl)-tetrahydro-2H-pyran-4-yl)oxalamide] | – | – | EC50 (bound printed in cell): > 1 µM |
| CC(F)(F)C(F)(F)CC(=O)N1CC2(CC2)C[C@H]1C(=O)N[C@@H](C[C@@H]1CCNC1=O)C(=O)COC(F)(F)F [Compound 713, (S)-N-((S)-3-oxo-1-((S)-2-oxopyrrolidin-3-yl)-4-(trifluoromethoxy)butan-2-yl)-5-(3,3,4,4-tetrafluoropentanoyl)-5-azaspiro[2.4]heptane-6-carboxamide] | 0.05 to 0.2 | – | – |
| CC(C)C[C@H](NC(=O)C(=O)Nc1ccccc1C#N)C(=O)N[C@@H](C[C@@H]1CCNC1=O)C(=O)COc1c(F)c(F)cc(F)c1F [Compound 75, N1-(2-cyanophenyl)-N2-((S)-4-methyl-1-oxo-1-(((S)-3-oxo-1-((S)-2-oxopyrrolidin-3-yl)-4-(2,3,5,6-tetra-fluorophenoxy)butan-2-yl)amino)pentan-2-yl)oxalamide] | – | 0.05 to 0.2 | – |
| O=C(N[C@@H](Cc1ccc(C(F)(F)F)cc1)C(=O)N[C@@H](C[C@@H]1CCNC1=O)C(=O)COc1c(F)c(F)cc(F)c1F)c1cc2cc(F)ccc2[nH]1 [Compound 17, 5-fluoro-N-((S)-1-oxo-1-(((S)-3-oxo-1-((S)-2-oxopyrrolidin-3-yl)-4-(2,3,5,6-tetrafluorophenoxy)butan-2-yl)amino)-3-(4-(tri-fluoromethyl)phenyl)-propan-2-yl)-1H-indole-2-carboxamide] | – | 0.2 to 0.5 | – |
| O=C(N[C@@H](CC1CC1)C(=O)N[C@@H](C[C@@H]1CCNC1=O)C(=O)COC(F)(F)F)c1cc(Cc2ccccc2)on1 [Compound 462, 5-benzyl-N-((S)-3-cyclopropyl-1-oxo-1-(((S)-3-oxo-1-((S)-2-oxopyrrolidin-3-yl)-4-(trifluoromethoxy)butan-2-yl)amino)propan-2-yl)isoxazole-3-carboxamide] | < 0.05 | – | – |
| CCC(CC)C(=O)N1CC2(CC2)C[C@H]1C(=O)N[C@@H](C[C@@H]1CCNC1=O)C(=O)COC(F)(F)F [Compound 448, (S)-5-(2-ethylbutanoyl)-N-((S)-3-oxo-1-((S)-2-oxopyrrolidin-3-yl)-4-(trifluoromethoxy)butan-2-yl)-5-azaspiro[2.4]heptane-6-carboxamide] | 0.05 to 0.2 | – | – |
